Laboratory results as given in US20250250231A1, “NOVEL SUBSTITUTED 4-AMINO-4-OXO-BUT-2-ENYL DERIVATIVES, PROCESSES FOR THEIR PREPARATION AND THERAPEUTIC USES THEREOF” (SANOFI, priority 2022, published 2025).

Columns and labels:
Assay type in all cases: cell-based
MCF7-WT cells = assay: In vitro anti-proliferation assay (CellTiter-Glo viability), MCF7-WT cells; conditions: MCF7-WT cells supplemented with 0.1 nM b-estradiol, viability on day 8, relative IC50
Protocol: (§1) Test: In vitro anti-proliferation assay
(§2) Said test involves measuring the in vitro anti-proliferation activity of the compounds of the Table 1a.
(§3) The measurements of the anti-proliferation activities were made using MCF7-WT (ATCC), MCF7-Y537S and HCC1428-LTED cells as described hereunder.
(§4) On Day 1, MCF7-WT and MCF7-Y537S (Mol Cancer Ther. 2021 20(2):250-262), and HCC1428-LTED (J Clin Invest. 2010; 120(7):2406-2413) cells, were seeded at 2000 (WT and LTED) and 500 (Y537S) cells/well in phenol red free IMEM (Corning, 110-026-CV) with 5% Charcoal stripped-FBS and incubated overnight 37° C. and 5% CO2.
(§5) On day 2, compounds were tested in triplicate in 10-point dose response (1:3 serial dilutions with a top concentration starting 300 nM); DMSO for upper limit (negative control) and staurosporine (1 uM) for lower limit (positive control) were also included. MCF7-WT cells were then supplemented with final 0.1 nM b-estradiol. After treating the cells, the assay plates were transferred back in the incubator at 37° C. and 5% CO2.
(§6) On day 8, cell viability was measured per vendor recommendations (CellTiter-Glo, Promega). Relative IC50 measurements were calculated as follow using a 4-parameter logistic derived from Levenburg Marquardt algorithm (IDBS XL Model 205 fit within A-base).

MCF7-Y537S cells = assay: In vitro anti-proliferation assay (CellTiter-Glo viability), MCF7-Y537S cells; conditions: viability on day 8, relative IC50
Protocol: as §1, §2, §3, §4, §5, §6

HCC1428-LTED cells = assay: In vitro anti-proliferation assay (CellTiter-Glo viability), HCC1428-LTED cells; conditions: Homo sapiens, HCC1428, 192 h, viability on day 8, relative IC50, read-out: HCC 1428 IC50
Protocol: as §1, §2, §3, §4, §5, §6

Compound	IC50 (MCF7-WT cells; Homo sapiens, MCF7, 192 h)	IC50 (MCF7-Y537S cells; Homo sapiens, MCF7, 192 h)	IC50 (HCC1428-LTED cells)	IC50 (MCF7-WT cells)	IC50 (MCF7-Y537S cells)
CN(C)C(=O)/C=C/CN1CC[C@H](Oc2ccc(C3=C(c4ccc(Cl)cc4Cl)CCCc4cc(O)ccc43)cc2)C1 [Compound 23, (S,E)-4-(3-(4-(8-(2,4-dichlorophenyl)-3-hydroxy-6,7-dihydro-5H-benzo[7]annulen-9-yl)phenoxy)pyrrolidin-1-yl)-N,N-dimethylbut-2-enamide]	26 nM	23 nM	0.03 nM		
Cc1ccc(C2=C(c3ccc(O[C@H]4CCN(C/C=C/C(=O)N(C)C)C4)cc3)c3ccc(C(=O)O)cc3CCC2)c(F)c1 [Compound 5, (S,E)-9-(4-((1-(4-(dimethylamino)-4-oxobut-2-en-1-yl)pyrrolidin-3-yl)oxy)phenyl)-8-(2-fluoro-4-methylphenyl)-6,7-dihydro-5H-benzo[7]annulene-3-carboxylic acid]	3 nM	76 nM	0.2 nM		
CN(C)C(=O)/C=C/CN1CC[C@H](Oc2ccc(C3=C(c4ccc(Cl)cc4Cl)CCSc4cc(O)ccc43)cc2)C1 [Compound 27, (S,E)-4-(3-(4-(4-(2,4-dichlorophenyl)-8-hydroxy-2,3-dihydrobenzo[b]thiepin-5-yl)phenoxy)pyrrolidin-1-yl)-N,N-dimethylbut-2-enamide]	2.9 nM	33 nM	0.02 nM		
CN(C)C(=O)/C=C/CN1CC[C@@H](Oc2ccc(C3=C(c4ccc(Cl)cc4Cl)CCCc4cc(C(=O)O)ccc43)cc2)C1 [Compound 15, (R,E)-8-(2,4-dichlorophenyl)-9-(4-((1-(4-(dimethylamino)-4-oxobut-2-en-1-yl)pyrrolidin-3-yl)oxy)phenyl)-6,7-dihydro-5H-benzo[7]annulene-3-carboxylic acid]	53 nM	186 nM	5 nM		
CN(C)C(=O)/C=C/CNCCOc1ccc(C2=C(c3ccc(Cl)cc3Cl)CCCc3cc(C(=O)O)ccc32)cc1 [Compound 22, (E)-8-(2,4-dichlorophenyl)-9-(4-(2-((4-(dimethylamino)-4-oxobut-2-en-1-yl)amino)ethoxy)phenyl)-6,7-dihydro-5H-benzo[7]annulene-3-carboxylic acid]	11 nM	184 nM	0.6 nM		
CN(C)C(=O)/C=C/CN1CC[C@H](Oc2ccc(C3=C(c4ccc(Cl)cc4Cl)CCc4cc(C(=O)O)ccc43)cc2)C1 [Compound 25, (S,E)-6-(2,4-dichlorophenyl)-5-(4-((1-(4-(dimethylamino)-4-oxobut-2-en-1-yl)pyrrolidin-3-yl)oxy)phenyl)-7,8-dihydronaphthalene-2-carboxylic acid]	300 nM	≥ 500 nM	17 nM		
CN(C)C(=O)/C=C/CN1CC(Oc2ccc(C3=C(c4ccc(Cl)cc4Cl)CCCc4cc(C(=O)O)ccc43)cc2)C1 [Compound 12, (E)-8-(2,4-dichlorophenyl)-9-(4-((1-(4-(dimethylamino)-4-oxobut-2-en-1-yl)azetidin-3-yl)oxy)phenyl)-6,7-dihydro-5H-benzo[7]annulene-3-carboxylic acid]	126 nM	≥ 500 nM	3 nM		
Cc1ccc(C2=C(c3ccc(O[C@H]4CCN(C/C=C/C(=O)N(C)C)C4)cc3)c3ccc(C(=O)O)cc3CCC2)c(Cl)c1 [Compound 11, (S,E)-8-(2-chloro-4-methylphenyl)-9-(4-((1-(4-(dimethylamino)-4-oxobut-2-en-1-yl)pyrrolidin-3-yl)oxy)phenyl)-6,7-dihydro-5H-benzo[7]annulene-3-carboxylic acid]	2 nM	204 nM	0.1 nM		
COc1ccc(C2=C(c3ccc(O[C@H]4CCN(C/C=C/C(=O)N(C)C)C4)cc3)c3ccc(C(=O)O)cc3CCC2)c(F)n1 [Compound 10, (S,E)-9-(4-((1-(4-(dimethylamino)-4-oxobut-2-en-1-yl)pyrrolidin-3-yl)oxy)phenyl)-8-(2-fluoro-6-methoxypyridin-3-yl)-6,7-dihydro-5H-benzo[7]annulene-3-carboxylic acid]	8 nM	≥ 500 nM	0.3 nM		
CN(C)C(=O)/C=C/CN1CC[C@H](Nc2ccc(C3=C(c4ccc(Cl)cc4Cl)CCCc4cc(C(=O)O)ccc43)cc2)C1 [Compound 16, (S,E)-8-(2,4-dichlorophenyl)-9-(4-((1-(4-(dimethylamino)-4-oxobut-2-en-1-yl)pyrrolidin-3-yl)amino)phenyl)-6,7-dihydro-5H-benzo[7]annulene-3-carboxylic acid]	37 nM	174 nM	33 nM		
CN(C)C(=O)/C=C/CN1CC[C@H](Oc2ccc(C3=C(c4ccc(F)cc4Cl)CCCc4cc(C(=O)O)ccc43)cc2)C1 [Compound 2, (S,E)-8-(2-chloro-4-fluorophenyl)-9-(4-((1-(4-(dimethylamino)-4-oxobut-2-en-1-yl)pyrrolidin-3-yl)oxy)phenyl)-6,7-dihydro-5H-benzo[7]annulene-3-carboxylic acid]	10 nM	≥ 500 nM	0.4 nM		
CN(C)C(=O)/C=C/CN1CC(Nc2ccc(C3=C(c4ccc(Cl)cc4Cl)CCCc4cc(C(=O)O)ccc43)cc2)C1 [Compound 21, (E)-8-(2,4-dichlorophenyl)-9-(4-((1-(4-(dimethylamino)-4-oxobut-2-en-1-yl)azetidin-3-yl)amino)phenyl)-6,7-dihydro-5H-benzo[7]annulene-3-carboxylic acid]	28 nM	≥ 500 nM	2.1 nM		
Cc1ccc(C2=C(c3ccc(O[C@H]4CCN(C/C=C/C(=O)N(C)C)C4)cc3)c3ccc(C(=O)O)cc3CCC2)c(C)c1 [Compound 8, (S,E)-9-(4-((1-(4-(dimethylamino)-4-oxobut-2-en-1-yl)pyrrolidin-3-yl)oxy)phenyl)-8-(2,4-dimethylphenyl)-6,7-dihydro-5H-benzo[7]annulene-3-carboxylic acid]	3 nM	87 nM	0.2 nM		
CN(C)C(=O)/C=C/CN1CC[C@H](Oc2ccc(C3=C(c4ccccc4Cl)CCCc4cc(C(=O)O)ccc43)cc2)C1 [Compound 9, (S,E)-8-(2-chlorophenyl)-9-(4-((1-(4-(dimethylamino)-4-oxobut-2-en-1-yl)pyrrolidin-3-yl)oxy)phenyl)-6,7-dihydro-5H-benzo[7]annulene-3-carboxylic acid]	4 nM	87 nM	0.2 nM		
CN(C)C(=O)/C=C/CN1CC[C@@H](Nc2ccc(C3=C(c4ccc(Cl)cc4Cl)CCCc4cc(C(=O)O)ccc43)cc2)C1 [Compound 17, (R,E)-8-(2,4-dichlorophenyl)-9-(4-((1-(4-(dimethylamino)-4-oxobut-2-en-1-yl)pyrrolidin-3-yl)amino)phenyl)-6,7-dihydro-5H-benzo[7]annulene-3-carboxylic acid]	10 nM	138 nM	1 nM		
CN(C)C(=O)/C=C/CN1CCC(Cc2ccc(C3=C(c4ccc(Cl)cc4Cl)CCCc4cc(C(=O)O)ccc43)cc2)C1 (single isomer, unassigned; isomer 1) [Compound 18, (E)-8-(2,4-dichlorophenyl)-9-(4-((1-(4-(dimethylamino)-4-oxobut-2-en-1-yl)pyrrolidin-3-yl)methyl)phenyl)-6,7-dihydro-5H-benzo[7]annulene-3-carboxylic acid, Isomer 1]			0.3 nM	26 nM	59 nM
CN(C)C(=O)/C=C/CN1CC[C@H](Oc2ccc(C3=C(c4ccc(Cl)cc4Cl)CCCc4ccccc43)cc2)C1 [Compound 26, (S,E)-4-(3-(4-(8-(2,4-dichlorophenyl)-6,7-dihydro-5H-benzo[7]annulen-9-yl)phenoxy)pyrrolidin-1-yl)-N,N-dimethylbut-2-enamide]	21 nM	193 nM	0.4 nM		
CN(C)C(=O)/C=C/CN1CC[C@H](Oc2ccc(C3=C(c4ccccc4)CCCc4cc(C(=O)O)ccc43)cc2)C1 [Compound 6, (S,E)-9-(4-((1-(4-(dimethylamino)-4-oxobut-2-en-1-yl)pyrrolidin-3-yl)oxy)phenyl)-8-phenyl-6,7-dihydro-5H-benzo[7]annulene-3-carboxylic acid]	14 nM	≥ 500 nM	0.7 nM		
CN(C)C(=O)/C=C/CN1CC[C@H](Oc2ccc(C3=C(c4cccc(F)c4Cl)CCCc4cc(C(=O)O)ccc43)cc2)C1 [Compound 4, (S,E)-8-(2-chloro-3-fluorophenyl)-9-(4-((1-(4-(dimethylamino)-4-oxobut-2-en-1-yl)pyrrolidin-3-yl)oxy)phenyl)-6,7-dihydro-5H-benzo[7]annulene-3-carboxylic acid]	22 nM	≥ 500 nM	2 nM		
CN(C)C(=O)/C=C/CN1CC(=Cc2ccc(C3=C(c4ccc(Cl)cc4Cl)CCCc4cc(C(=O)O)ccc43)cc2)C1 [Compound 14, (E)-8-(2,4-dichlorophenyl)-9-(4-((1-(4-(dimethylamino)-4-oxobut-2-en-1-yl)azetidin-3-ylidene)methyl)phenyl)-6,7-dihydro-5H-benzo[7]annulene-3-carboxylic acid]	101 nM	0.4 nM	0.4 nM		
